Here are results for 19 compounds from patent publication US8039458B2, “HIV integrase inhibitors” (priority 2005, dated 2011).

The subject of data set [1] is recombinant NL-Rluc virus. The data set is described as follows: Inhibition of HIV replication (NL-RLuc virus, Renilla luciferase). To be noted: Human immunodeficiency virus 1, read-out: antiviral actitively. It is filed as cell-based.
A further data set deals with T1, HIV-Integrase (Human immunodeficiency virus type 1 group M subtype B, UniProt P12497).
T1 construct: Recombinant integrase (0.26 ng) was incubated with the beads
The data set can be described thus: HIV-Integrase binding assay (competition with [3H]-compound I, SPA). To be noted: competitive binding vs [3H]-compound I to purified integrase; Ki by Cheng and Prusoff; read-out: in vitro binding. The method, then: HIV-Integrase Inhibition Activity. To evaluate in-vitro activity against HIV-integrase, 5 pmole of biotin labeled substrate DNA was bound to 100 μg of Streptavidin coated PVT SPA beads (Amersham Pharmacia Biotech). Recombinant integrase (0.26 ng) was incubated with the beads for 90 min at 37° C. Unbound enzyme was removed by washing the complex followed by addition of inhibitors and 0.1 fmol of P33 labeled target DNA. The reaction was stopped by adding EDTA to a final concentration of 10 mM. Samples were counted in TopCountNXT (Packard) and the CPM was used as a measure of integration. The reaction condition was as described in A. Engelman and R. Craigie, J. Virol. 69, 5908-5911 (1995). The sequences of substrate and target DNA were described in Nucleic Acid Research 22,1121-1122 (1994).
HIV-Integrase binding assay. In this assay competitive binding experiments with test compounds and a radiolabeled integrase inhibitor (compound I) are performed against purified integrase. SPA bead/DNA/enzyme complexes were prepared as for the integrase inhibition assay except, to each well, 0.69 μl of integrase enzyme ([…]) was used per 2 μl of LTR DNA-attached scintillation proximity beads (stock 50 mg/ml). Binding reactions were carried out in 96-well white polystyrene assay plates (Corning, #3600). The following was added sequentially to each well: 20 μl of water or 20 μl of human serum (Cellgro Cat# 35-060-CL), 5 μl of serially diluted compound (in 50% DMSO/50% integrase SPA buffer), 5 μl of [^3H]-compound I (6,000 cpm/μl in SPA buffer) and 20 μl of bead/DNA/enzyme complex. The plates were shaken for 2 hours and then allowed to sit at room temperature without shaking overnight. The [^3H]-compound I binding was measured using a Topcount scintillation counter. Cheng and Prusoff equations were used to convert the inhibition of compound 1 binding into the corresponding Ki value. Activity equal to A refers to a compound having Ki=0.001 to 0.003 μM while B and C denote compounds having Ki=0.003 to 0.05 μM and Ki≧0.050 μM respectively.

The structures appear in SMILES notation. pEC50, pKi: −log10 of the molar value. A value given as a limit tells only on which side of the number the result lay.

In the case of `CCc1ncnn1-c1cc(F)ccc1CNC(=O)c1nc2n(c(=O)c1O)CCOCC21CCCC1` [Example 22, N-((2-(5-ethyl-1H-1,2,4-triazol-1-yl)-4-fluorophenyl)methyl)-3′-hydroxy-4′-oxo-6′,7′-dihydro-4′H-spiro[cyclopentane-1,10′-pyrimido[1,2-d][1,4]oxazepine]-2′-carboxamide], the pEC50 in data set [1] is 8.00 to 9.00. On HIV-Integrase, the pKi is 7.30 to 8.52.
Take `Cc1ncnn1-c1cc(F)ccc1CNC(=O)c1nc2n(c(=O)c1O)CCOCC21CCCC1` [Example 23, N-((4-fluoro-2-(5-methyl-1H-1,2,4-triazol-1-yl)phenyl)methyl)-3′-hydroxy-4′-oxo-6′,7′-dihydro-4′H-spiro[cyclopentane-1,10′-pyrimido[1,2-d][1,4]oxazepine]-2′-carboxamide]: the pEC50 in data set [1] is 8.00 to 9.00. In addition, the pKi at HIV-Integrase is 8.52 to 9.00.
For `Cc1nc(C)n(-c2cc(F)ccc2CNC(=O)c2nc3n(c(=O)c2O)CCOCC32CCCC2)n1` [Example 24, N-((2-(3,5-dimethyl-1H-1,2,4-triazol-1-yl)-4-fluorophenyl)methyl)-3′-hydroxy-4′-oxo-6′,7′-dihydro-4′H-spiro[cyclopentane-1,10′-pyrimido[1,2-d][1,4]oxazepine]-2′-carboxamide], in that order: 8.00 to 9.00 and 7.30 to 8.52.
For `O=C(NCc1ccc(F)cc1-n1cnc(CO)n1)c1nc2n(c(=O)c1O)CCOCC21CCOCC1` [Example 25, N-((4-fluoro-2-(3-(hydroxymethyl)-1H-1,2,4-triazol-1-yl)phenyl)methyl)-3′-hydroxy-4′-oxo-2,3,5,6,6′,7′-hexahydro-4′H-spiro[pyran-4,10′-pyrimido[1,2-d][1,4]oxazepine]-2′-carboxamide], in that order: under 7.30 and 7.30 to 8.52.
For `COCc1ncn(-c2cc(F)ccc2CNC(=O)c2nc3n(c(=O)c2O)CCOCC32CCOCC2)n1` [Example 26, N-((4-fluoro-2-(3-((methyloxy)methyl)-1H-1,2,4-triazol-1-yl)phenyl)methyl)-3′-hydroxy-4′-oxo-2,3,5,6,6′,7′-hexahydro-4′H-spiro[pyran-4,10′-pyrimido[1,2-d][1,4]oxazepine]-2′-carboxamide], in that order: 7.30 to 8.00 and 7.30 to 8.52.
Take `Cn1cnn(-c2cc(F)ccc2CNC(=O)c2nc3n(c(=O)c2O)CCOCC32CCOCC2)c1=O` [Example 27, N-(4-Fluoro-2-(4-methyl-5-oxo-4,5-dihydro-1H-1,2,4-triazol-1-yl)benzyl)-3′-hydroxy-4′-oxo-2,3,4′,5,6,6′,7′,9′-octahydrospiro[pyran-4,10′-pyrimido[1,2-d][1,4]oxazepine]-2′-carboxamide]: the pEC50 in data set [1] was 8.00 to 9.00. Also, on HIV-Integrase, the pKi was 7.30 to 8.52.
For `Cc1nn(-c2cc(F)ccc2CNC(=O)c2nc3n(c(=O)c2O)CCOCC32CCOCC2)c(=O)n1C` [Example 28, N-(2-(3,4-dimethyl-5-oxo-4,5-dihydro-1H-1,2,4-triazol-1-yl)-4-fluorobenzyl)-3′-hydroxy-4′-oxo-2,3,4′,5,6,6′,7′,9′-octahydrospiro[pyran-4,10′-pyrimido[1,2-d][1,4]oxazepine]-2′-carboxamide], in that order: 8.00 to 9.00 and 7.30 to 8.52.
For orientation: melting point means the temperature of the solid-liquid transition. `O=C(NCc1ccc(F)cc1)c1nc2n(c(=O)c1O)CCOCC2` [Example 31, N-((4-fluorophenyl)methyl)-3-hydroxy-4-oxo-6,7,9,10-tetrahydro-4H-pyrimido[1,2-d][1,4]oxazepine-2-carboxamide] came in with a melting point of 197 to 199 °C. Also, the pEC50 in data set [1] is under 7.30. The pKi at HIV-Integrase is 7.30 to 8.52.
Take `O=C(NCc1ccc(F)cc1)c1nc2n(c(=O)c1O)CCOCC21CCOCC1` [Example 32, N-((4-fluorophenyl)methyl)-3′-hydroxy-4′-oxo-2,3,5,6,6′,7′-hexahydro-4′H-spiro[pyran-4,10′-pyrimido[1,2-d][1,4]oxazepine]-2′-carboxamide]: in data set [1], the pEC50 was 7.30 to 8.00. Besides, at HIV-Integrase, the pKi was 7.30 to 8.52.
For `CNC(=O)c1cc(F)ccc1CNC(=O)c1nc2n(c(=O)c1O)CCOCC21CCOCC1` [Example 33, N-((4-fluoro-2-((methylamino)carbonyl)phenyl)methyl)-3′-hydroxy-4′-oxo-2,3,5,6,6′,7′-hexahydro-4′H-spiro[pyran-4,10′-pyrimido[1,2-d][1,4]oxazepine]-2′-carboxamide], in that order: 8.00 to 9.00 and 7.30 to 8.52.
For `O=C(NCc1ccc(F)cc1-n1cncn1)c1nc2n(c(=O)c1O)CCOCC21CCOCC1` [Example 34, N-((4-fluoro-2-(1H-1,2,4-triazol-1-yl)phenyl)methyl)-3′-hydroxy-4′-oxo-2,3,5,6,6′,7′-hexahydro-4′H-spiro[pyran-4,10′-pyrimido[1,2-d][1,4]oxazepine]-2′-carboxamide], in that order: 8.00 to 9.00 and 8.52 to 9.00.
For `Cc1ncn(-c2cc(F)ccc2CNC(=O)c2nc3n(c(=O)c2O)CCOCC32CCOCC2)n1` [Example 35, N-((4-fluoro-2-(3-methyl-1H-1,2,4-triazol-1-yl)phenyl)methyl)-3′-hydroxy-4′-oxo-2,3,5,6,6′,7′-hexahydro-4′H-spiro[pyran-4,10′-pyrimido[1,2-d][1,4]oxazepine]-2′-carboxamide], in that order: 8.00 to 9.00 and 7.30 to 8.52.
`Cc1ncnn1-c1cc(F)ccc1CNC(=O)c1nc2n(c(=O)c1O)CCOCC21CCOCC1` [Example 36, N-((4-fluoro-2-(5-methyl-1H-1,2,4-triazol-1-yl)phenyl)methyl)-3′-hydroxy-4′-oxo-2,3,5,6,6′,7′-hexahydro-4′H-spiro[pyran-4,10′-pyrimido[1,2-d][1,4]oxazepine]-2′-carboxamide]: in data set [1], the pEC50 is 8.00 to 9.00. For the same compound, the pKi on HIV-Integrase is 7.30 to 8.52.
For `Cc1cnnn1-c1cc(F)ccc1CNC(=O)c1nc2n(c(=O)c1O)CCOCC21CCOCC1` [Example 37, N-((4-fluoro-2-(5-methyl-1H-1,2,3-triazol-1-yl)phenyl)methyl)-3′-hydroxy-4′-oxo-2,3,5,6,6′,7′-hexahydro-4′H-spiro[pyran-4,10′-pyrimido[1,2-d][1,4]oxazepine]-2′-carboxamide], in that order: 7.30 to 8.00 and 7.30 to 8.52.
As for `CN1CCN(c2cc(F)ccc2CNC(=O)c2nc3n(c(=O)c2O)CCOCC32CCOCC2)C1=O` [Example 38, N-((4-fluoro-2-(3-methyl-2-oxo-1-imidazolidinyl)phenyl)methyl)-3′-hydroxy-4′-oxo-2,3,5,6,6′,7′-hexahydro-4′H-spiro[pyran-4,10′-pyrimido[1,2-d][1,4]oxazepine]-2′-carboxamide], the pEC50 in data set [1] is 8.00 to 9.00. Moreover, on HIV-Integrase, the pKi is 7.30 to 8.52.
For `O=C(NCc1ccc(F)cc1-n1ncnc1CF)c1nc2n(c(=O)c1O)CCOCC21CCOCC1` [Example 39, N-((4-fluoro-2-(5-(fluoromethyl)-1H-1,2,4-triazol-1-yl)phenyl)methyl)-3′-hydroxy-4′-oxo-2,3,5,6,6′,7′-hexahydro-4′H-spiro[pyran-4,10′-pyrimido[1,2-d][1,4]oxazepine]-2′-carboxamide], in that order: 8.00 to 9.00 and 7.30 to 8.52.
For `Cn1ncnc1-c1cc(F)ccc1CNC(=O)c1nc2n(c(=O)c1O)CCOCC21CCOCC1` [Example 40, N-((4-fluoro-2-(1-methyl-1H-1,2,4-triazol-5-yl)phenyl)methyl)-3′-hydroxy-4′-oxo-2,3,5,6,6′,7′-hexahydro-4′H-spiro[pyran-4,10′-pyrimido[1,2-d][1,4]oxazepine]-2′-carboxamide], in that order: 8.00 to 9.00 and 7.30 to 8.52.
For `Cc1nc(-c2cc(F)ccc2CNC(=O)c2nc3n(c(=O)c2O)CCOCC32CCOCC2)n(C)n1` [Example 41, N-((2-(1,3-dimethyl-1H-1,2,4-triazol-5-yl)-4-fluorophenyl)methyl)-3′-hydroxy-4′-oxo-2,3,5,6,6′,7′-hexahydro-4′H-spiro[pyran-4,10′-pyrimido[1,2-d][1,4]oxazepine]-2′-carboxamide], in that order: 7.30 to 8.00 and 7.30 to 8.52.
Consider `Cc1n[nH]c(-c2cc(F)ccc2CNC(=O)c2nc3n(c(=O)c2O)CCOCC32CCOCC2)n1` [Example 42, N-((4-fluoro-2-(3-methyl-1H-1,2,4-triazol-5-yl)phenyl)methyl)-3′-hydroxy-4′-oxo-2,3,5,6,6′,7′-hexahydro-4′H-spiro[pyran-4,10′-pyrimido[1,2-d][1,4]oxazepine]-2′-carboxamide], for which the pEC50 in data set [1] was 8.00 to 9.00. Further, the pKi at HIV-Integrase is 8.52 to 9.00.
